Patent US10828301B2, “2,4-pyrimidinediamine compounds and their uses” (Rigel Pharmaceuticals, Inc, priority 2002, dated 2020)

Legend:
[1] = test system: cultured human mast cells (CHMC); experiment: CHMC low cell density ionomycin activation: tryptase assay; assay type: cell-based; conditions: read-out: CHMC Ionomycin Tryptase
[2] = test system: cultured human mast cells (CHMC); experiment: CHMC low cell density IgE activation: tryptase and LTC4 assays; assay type: cell-based
Summary of the method: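 Degranulation measured after 30 min anti-IgE challenge at 37° C of CHMC plated at 1000-1500 cells/well following 1 h preincubation. Readouts: LTC4 by ELISA on donor-specific diluted supernatants, and tryptase activity from a 30 min room-temperature substrate reaction.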

[3] = Homo sapiens, Mast cell, Low Density CHMC, ionomycin activation, tryptase readout
[4] = Homo sapiens, Mast cell, Low Density CHMC, anti-IgE activation, tryptase readout, read-out: CHMC anti-IgE Tryptase

| SMILES | IC50 [1, 3] [µM] | IC50 [2, 4] [µM] | further results |
| --- | --- | --- | --- |
| CCOC(=O)c1nc(Nc2ccc3c(c2)OCCO3)nc(Nc2ccc3c(c2)OCCO3)c1[N+](=O)[O-] [Compound R925852, N2,N4-Bis(3,4-ethylendioxyphenyl)-6-ethoxycarbonyl-5-nitro-2,4-pyrimidinediamine] | > 10 | 3 | – |
| CCOC(=O)c1nc(Nc2cccc(O)c2)nc(Nc2cccc(O)c2)c1N [Compound R925856, 5-Amino-6-ethoxycarbonyl-N2,N4-bis(3-hydroxyphenyl)-2,4-pyrimidinediamine] | > 10 | 9.85 | – |
| CCOC(=O)c1nc(Nc2ccc3c(c2)OCCO3)nc(Nc2ccc3c(c2)OCCO3)c1N [Compound R925857, 5-Amino-6-ethoxycarbonyl-N2,N4-bis(3,4-ethylenedioxyphenyl)-2,4-pyrimidinediamine] | > 10 | 5.95 | – |
| Oc1cccc(Nc2ncc(C(F)(F)F)c(Nc3cccc(O)c3)n2)c1 [Compound R925863, N2,N4-Bis(3-hydroxyphenyl)-5-trifluoromethyl-2,4-pyrimidinediamine] | > 10 | 0.274 | – |
| CCOC(=O)CNc1nc(NCC(=O)OCC)c([N+](=O)[O-])c(C(=O)OCC)n1 [Compound R925864, N2,N4-Bis(ethoxycarbonylmethyl)-6-ethoxycarbonyl-5-nitro-2,4-pyrimidinediamine] | > 10 | > 10 | – |
| CCOC(=O)CNc1nc(NCC(=O)OCC)c(N)c(C(=O)OCC)n1 [Compound R925865, 5-Amino-N2,N4-bis(ethoxycarbonylmethyl)-6-ethoxycarbonyl-2,4-pyrimidinediamine] | > 10 | > 10 | – |
| Cc1cnc(Nc2ccc3c(c2)OCCO3)nc1Nc1ccc2c(c1)OCCO2 [Compound R926242, N2,N4-Bis(3,4-ethylenedioxyphenyl)-5-methyl-2,4-pyrimidinediamine] | > 10 | 4.2 | – |
| c1cc(Nc2ccc3c(c2)OCCO3)nc(Nc2ccc3c(c2)OCCO3)n1 [Compound R926243, N2,N4-Bis(3,4-ethylenedioxyphenyl)-2,4-pyrimidinediamine] | > 10 | 3.1 | – |
| Clc1cc(Nc2ccc3c(c2)OCCO3)nc(Nc2ccc3c(c2)OCCO3)n1 [Compound R926245, N2,N4-Bis(3,4-ethylenedioxyphenyl)-6-chloro-2,4-pyrimidinediamine] | 9.4 | 3.1 | – |
| CCOC(=O)c1cnc(Nc2ccc(CC#N)cc2)nc1Nc1ccc(CC#N)cc1 [Compound R926319, N2,N4-Bis(4-cyanomethylphenyl)-5-ethoxycarbonyl-2,4-pyrimidinediamine] | > 10 | > 10 | – |
| CCOC(=O)C=Nc1ccc(Nc2ncc(C(=O)OCC)c(Nc3ccc(N=CC(=O)OCC)cc3)n2)cc1 [Compound R926331, N2,N4-Bis(4-ethoxycarbonylmethyleneaminophenyl)-5-ethoxycarbonyl-2,4-pyrimidinediamine] | > 10 | > 10 | – |
| COc1ccc(Nc2ncc(F)c(Nc3ccc(OC)c(O)c3)n2)cc1O [Compound R926339, N2,N4-Bis(3-hydroxy-4-methoxyphenyl)-5-fluoro-2,4-pyrimidinediamine] | > 10 | 0.66 | – |
| CCOC(=O)Nc1ccc(Nc2ncc(F)c(Nc3ccc(NC(=O)OCC)c(O)c3)n2)cc1O [Compound R926340, N2,N4-Bis(4-ethoxycarbonylamino-3-hydroxyphenyl)-5-fluoro-2,4-pyrimidinediamine] | > 10 | 3.23 | – |
| Fc1cnc(Nc2ccc3c(c2)OC(F)(F)O3)nc1Nc1ccc2c(c1)OCCO2 [Compound R926386, N2-(2,2-Difluorobenzodioxol-5-yl)-N4-(3,4-ethylenedioxyphenyl)-5-fluoro-2,4-pyrimidinediamine] | > 10 | > 10 | – |
| Fc1cnc(Nc2cccc(OCc3ccccc3)c2)nc1Nc1cccc(OCc2ccccc2)c1 [Compound R926394, N2,N4-Bis(3-benzyloxyphenyl)-5-fluoro-2,4-pyrimidinediamine] | > 10 | > 10 | – |
| Cc1cnc(NCCc2ccc(O)cc2)nc1NCCc1ccc(O)cc1 [Compound R926397, N2,N4-Bis[2-(4-hydroxyphenyl)ethyl]-5-methyl-2,4-pyrimidinediamine] | > 10 | > 10 | – |
| Fc1cnc(Nc2ccccc2-c2ccccc2)nc1Nc1ccccc1-c1ccccc1 [Compound R926398, N2,N4-Bis(2-phenylphenyl)-5-fluoro-2,4-pyrimidinediamine] | > 10 | > 10 | – |
| Fc1cnc(Nc2cccc(-c3ccccc3)c2)nc1Nc1cccc(-c2ccccc2)c1 [Compound R926403, N2,N4-Bis[(3-phenyl)phenyl]-5-fluoro-2,4-pyrimidinediamine] | > 10 | > 10 | – |

| SMILES | IC50 [1, 3] [µM] | IC50 [2, 4] [µM] | further results |
| --- | --- | --- | --- |
| Cc1cnc(Nc2ccccc2-c2ccccc2)nc1Nc1ccccc1-c1ccccc1 [Compound R926404, N2,N4-Bis(2-phenylphenyl)-5-methyl-2,4-pyrimidinediamine] | > 10 | > 10 | – |
| Oc1ccc(Nc2ncc(F)c(Nc3ccc(O)cc3)n2)cc1 [Compound R926405, N2,N4-Bis(4-hydroxyphenyl)-5-fluoro-2,4-pyrimidinediamine] | > 10 | 3.4 | – |
| Oc1cccc(Nc2cc(Cl)nc(Nc3cccc(O)c3)n2)c1 [Compound R926408, N2,N4-Bis(3-hydroxyphenyl)-6-chloro-2,4-pyrimidinediamine] | > 10 | 9.6 | – |
| Oc1cccc(Nc2cc(Nc3cccc(O)c3)nc(Nc3cccc(O)c3)n2)c1 [Compound R926409, N2,N4,N6-Tris(3-hydroxyphenyl)-2,4,6-pyrimidinetriamine] | > 10 | 3.15 | – |
| CC(C)NC(=O)Oc1cccc(Nc2ncc(F)c(Nc3cccc(OC(=O)NC(C)C)c3)n2)c1 [Compound R926412, N2,N4-Bis(3-isopropylaminocarbonyloxyphenyl)-5-fluoro-2,4-pyrimidinediamine] | – | – | IC50 ([1]; Homo sapiens, Mast cell): > 10 µM; IC50 ([2]; Homo sapiens, Mast cell, read-out: CHMC anti-IgE Tryptase): 0.62 µM |
| Clc1nc(Nc2ccc3c(c2)OCCO3)nc(Nc2ccc3c(c2)OCCO3)c1Cl [Compound R926467, N2,N4-Bis(3,4-ethylenedioxyphenyl)-5,6-dichloro-2,4-pyrimidinediamine] | 8.8 | 1.18 | – |
| CCOC(=O)c1cc2cc(Nc3ncc(F)c(Nc4ccc(C(C)(C)C)cc4)n3)ccc2[nH]1 [Compound R926474, N4-(4-tert-Butylphenyl)-N2-(2-ethoxycarbonylindol-5-yl)-5-fluoro-2,4-pyrimidinediamine] | > 10 | 2.5 | – |
| CCOC(=O)c1cc2cc(Nc3ncc(F)c(Nc4ccc5c(c4)OCCO5)n3)ccc2[nH]1 [Compound R926476, N2-(2-Ethoxycarbonylindol-5-yl)-N4-(3,4-ethylenedioxyphenyl)-5-fluoro-2,4-pyrimidinediamine] | 7.7 | 0.6 | – |
| COC(=O)c1cc2cc(Nc3ncc(F)c(Nc4ccc(C(C)(C)C)cc4)n3)ccc2o1 [Compound R926477, N4-(4-tert-Butylphenyl)-5-fluoro-N2-(2-methoxycarbonylbenzofuran-5-yl)-2,4-pyrimidinediamine] | > 10 | 0.27 | – |
| CC(C)(C)c1ccc(Nc2nc(Nc3ccc4oc(C(=O)O)cc4c3)ncc2F)cc1 [Compound R926481, N4-(4-tert-Butylphenyl)-N2-(2-carboxybenzofuran-5-yl)-5-fluoro-2,4-pyrimidinediamine] | > 10 | 1.45 | – |
| COC(=O)c1cc2cc(Nc3nc(Nc4ccc5c(c4)OCCO5)ncc3F)ccc2o1 [Compound R926485, N2-(3,4-Ethylenedioxyphenyl)-N4-(2-methoxycarbonylbenzofuran-5-yl)-5-fluoro-2,4-pyrimidinediamine] | > 10 | 4.01 | – |
| COC(=O)c1cc2cc(Nc3ncc(F)c(Nc4cccc(OC(C)C)c4)n3)ccc2o1 [Compound R926487, 5-Fluoro-N4-(3-isopropoxyphenyl)-N2-(2-methoxycarbonylbenzofuran-5-yl)-2,4-pyrimidinediamine] | 8.87 | 0.554 | IC50 ([2]; Homo sapiens, Mast cell, Low Density CHMC, anti-IgE activation, LTC4 readout, read-out: CHMC anti-IgE LTC4): 1.25 µM |
| CNC(=O)c1cc2cc(Nc3nc(Nc4ccc5c(c4)OCCO5)ncc3F)ccc2o1 [Compound R926491, N2-(3,4-Ethylenedioxyphenyl)-5-fluoro-N4-[2-(N-methylamino)carbonylbenzofuran-5-yl]-2,4-pyrimidinediamine] | > 10 | 1.16 | – |
| c1cc2c(cc1Nc1cc(Nc3ccc4c(c3)OCCO4)nc(Nc3ccc4c(c3)OCCO4)n1)OCCO2 [Compound R926516, N2,N4,N6-Tris(3,4-ethylenedioxyphenyl)-2,4,6-pyrimidinetriamine] | > 10 | 1 | – |
| Fc1cnc(Nc2ccc3[nH]ccc3c2)nc1Nc1ccc2[nH]ccc2c1 [Compound R926582, N2,N4-Bis(indol-5-yl)-5-fluoro-2,4-pyrimidinediamine] | > 10 | 1.3 | – |
| Oc1cccc(Nc2nc(Cl)c(Cl)c(Nc3cccc(O)c3)n2)c1 [Compound R926591, N2,N4-Bis(3-hydroxyphenyl)-5,6-dichloro-2,4-pyrimidinediamine] | > 10 | 2.62 | – |
| COC(=O)c1cc2cc(Nc3ncc(F)c(Nc4ccc5[nH]c(C(=O)OC)cc5c4)n3)ccc2[nH]1 [Compound R926593] | – | – | IC50 ([1]; Low Density CHMC, ionomycin activation, tryptase readout): 8.3 µM; IC50 ([2]; Low Density CHMC, anti-IgE activation, LTC4 readout, read-out: CHMC anti-IgE LTC4): 0.495 µM; IC50 ([2]; Low Density CHMC, anti-IgE activation, tryptase readout, read-out: CHMC anti-IgE Tryptase): 0.68 µM |
| Fc1cnc(Nc2ccc3cc[nH]c3c2)nc1Nc1ccc2cc[nH]c2c1 [Compound R926594, N2,N4-Bis(indol-6-yl)-5-fluoro-2,4-pyrimidinediamine] | > 10 | > 10 | – |
